# Key:
# [1] = tested on: AtTHIC promoter and AtTHIC 3' UTR (TPP riboswitch); experiment: Dual reporter assay (RFP under AtTHIC promoter, YFP fused to AtTHIC 3' UTR) with exogenous TPP; type: in vivo, Arabidopsis
# Procedure: Arabidopsis thaliana plants (ecotype Columbia, Col-0) were grown on soil in climate rooms (22° C.; 70% humidity; 16/8 hr light/dark for long day conditions and 10/14 hr light/dark for short day conditions). The Atthi1 and Atthic mutants were obtained from the European Arabidopsis Stock Center (NASC; http://arabidopsis.info/; stock ID: N3375; salk—011114 respectively). For experiments involving TPP addition, plants were grown for 14 days in petri dishes on MS media (basal salt mixture; Duchefa, Haarlem, The Netherlands) with 1% sucrose and 1% agar, to which TPP (Sigma, Cat. no. C8754, water soluble) was added up to the indicated concentration.
# In order to determine whether the diurnal changes of AtTHIC expression are caused by the light or by the circadian clock, Arabidopsis plants were subjected to a circadian assay (see material and methods above). […] In the growth conditions used herein, the transcripts reached their highest expression level at the beginning of the dark period and their lowest expression level shortly after the beginning of the light period. […] To separate between these two modes of gene control, a dual reporter assay was developed, allowing observing the in vivo activity of both elements. Expression of one reporter gene, YELLOW FLUORESCENT PROTEIN(YFP) was under the control of a constitutive promoter (CaMV-35S) and fused to the AtTHIC 3′ UTR. A second reporter gene, RED FLUORESCENT PROTEIN(RFP) was placed under the regulation of the native AtTHIC promoter and fused to the NOS terminator (FIG. 4). These two reporters were introduced into the Arabidopsis wild type (wt) and thi1 mutant (deficient in thiamine biosynthesis), and their expression was monitored under various conditions. Wild type plants harboring this double reporter genes system were subjected to a circadian assay.
# The expression level of the above-described reporter genes (YFP and RFP) in fully grown plants was also determined. […]
# thiamine biosynthesis = experiment: Bacimethrin treatment of wild type plants, thiamine and TPP levels by HPLC; type: in vivo, Arabidopsis; details: 1 mM in growth medium, wild type plants (FIG. 26)
# Procedure: Bacimethrin is a naturally occurring thiamine anti-metabolite. It is converted to 2′-methoxy-thiamine pyrophosphate by the thiamine biosynthetic enzymes at a rate that is 6 times faster than the rate of conversion of the natural substrate HMP to thiamine pyrophosphate (Reddick J J et al., 2001. Bioorg Med Chem Lett 11, 2245-2248). Since bacimethrin is a thiamine biosynthesis inhibitor in bacteria, its potency in plants was examined.
# Samples (100 mg) were harvested from three weeks old plants grown in short day conditions at the end of the light period, and immediately frozen in liquid nitrogen. The plant samples were then grinded followed by the addition of 400 μl of 0.1M HCl, and sonicated in a water bath for 30 min. The resulting extracts were centrifuged at 14,000 rpm (in a regular bench centrifuge) for 10 min. […] Thiochrome derivatives of thiamine, TMP, and TPP were detected by fluorescence at excitation 370 nm and emission 430 nm. Different concentrations of thiamine, thiamine monophosphate (TMP) and thiamine pyrophosphate (TPP) standards were analyzed using the same extraction procedure and chromatographic conditions. […] For quantification of the samples, the peak areas of the samples were compared to the corresponding standard curve.
# [2] = tested on: thiamine biosynthetic enzymes; details: Reddick et al., 2001; cited from earlier work
# AtTHIC gene = experiment: AtTHIC transcript levels (qPCR) under bacimethrin treatment in wt, upf1 and upf3 plants; type: in vivo, Arabidopsis; details: 1 mM bacimethrin
# Procedure: Quantitative Real Time PCR (qPCR) gene expression analysis was performed with three biological replicates using gene/variant-specific qPCR oligonucleotide-pairs, designed with Primer Express software (Applied Biosystems). AtUBIQUITIN C (At5g25760) was used as endogenous control for all analyses. Fixed amount of DNAse-treated total RNA was reverse transcribed using AMV Reverse Transcriptase (EurX Ltd., Poland). RT-PCR reactions were tracked on an ABI 7300 instrument (Applied Biosystems) using the PlatinumR SYBR SuperMix (Invitrogen). Each sample was PCR-amplified from the same amount of cDNA template in triplicate reactions. Following an initial step in the thermal cycler for 10 min at 95° C., PCR amplification proceeded for 40 cycles of 15 s at 95° C. and 60 s at 60° C., and completed by melting curve analysis to confirm specificity of PCR products. The baseline and threshold values were adjusted according to manufacturer's instructions.
# Given the importance of the AtTHIC gene for thiamine biosynthesis, its mode of regulation, particularly the nature of the high turnover of the intron-spliced variant compared to the intron-retained variant was further examined. Since the spliced variant contains two introns in its 3′ UTR, its instability could be due to the activity of the non-sense mediated decay (NMD) pathway (Kertesz S et al., 2006. Nucleic Acids Res 34, 6147-6157). Thus, the level of this transcript was measured in the background of upf1 and upf3 mutants of Arabidopsis affected in the NMD pathway (Arciga-Reyes L et al., 2006. Plant J 47, 480-489). Transcript level was examined in both normal and low TPP concentrations (FIG. 9). Lowering the plant endogenous TPP levels in these experiments was obtained using 1 mM bacimethrin, an anti-metabolite that inhibits thiamine production (Reddick et al., 2001; ibid). In wt plants as well as in the upf1 and upf3 mutants, bacimethrin treatment (preventing thiamine accumulation) caused the upregulation of the total AtTHIC transcript and of its intron-retention variant (FIGS. 9A and 9B, respectively). […] Thus, the accumulation of this transcript in the upf mutants can be explained by an increase in its stability since the NMD trans-factors are missing. It should also be noticed, that due to the accumulation of the intron-spliced variant under bacimethrin treatment, the total AtTHIC transcripts are more abundant in the upf mutants.
Structure (SMILES),RFP expression directed by AtTHIC promoter ([1]; Atthi1 mutant plants),YFP expression regulated by AtTHIC 3' UTR ([1]; Atthi1 mutant plants),"reporter gene expression (RFP and YFP) ([1]; wt plants with double reporter gene system, increasing TPP concentrations)",TPP levels (thiamine biosynthesis),thiamine levels (thiamine biosynthesis),rate of conversion to 2'-methoxy-thiamine pyrophosphate relative to conversion of natural substrate HMP to thiamine pyrophosphate [2] [times faster],AtTHIC intron-spliced variant transcript (AtTHIC gene; upf1 and upf3 mutants (FIG. 9C)),AtTHIC intron-spliced variant transcript (AtTHIC gene; wt plants (FIG. 9C)),"total AtTHIC transcript (AtTHIC gene; wt plants and upf1, upf3 mutants (FIG. 9A))","AtTHIC intron-retention variant transcript (AtTHIC gene; wt plants and upf1, upf3 mutants (FIG. 9B))"
"Cc1ncc(C[n+]2csc(CCO[P@](=O)(O)OP(=O)(O)O)c2C)c(N)n1 [TPP, thiamine pyrophosphate]",did not respond,regulated YFP expression in a TPP dependent manner,Only slight changes,,,,,,,
COc1ncc(CO)c(N)n1 [bacimethrin],,,,reduced,increased,6,did not decrease,down-regulation,upregulation,upregulation

# — US20130198900A1, “"THIAMINE PYROPHOSPHATE (TPP) RIBOSWITCH MUTANTS PRODUCING VITAMIN B1 ENRICHED FOOD AND FEED CROPS"” (BEN-GURION UNIVERSITY OF THE NEGEV, priority 2010, published 2013)
